From patent publication US20250338846A1, “COMPOSITIONS HAVING PESTICIDAL UTILITY AND PROCESSES RELATED THERETO” (CORTEVA AGRISCIENCE, LLC, priority 2022, published 2025)

What was measured:
Format in all cases: in vivo
[1] = test system: Diamondback Moth (Plutella xylostella, PLUTMA); test: Bioassay 9: Diamondback Moth, leaves of track-sprayed cabbage plants, mortality and feeding damage scored
[2] = test system: Diamondback Moth (Plutella xylostella, PLUTMA); test: as above; conditions: F1 alone 40 (10^-5) Wt %
[3] = test system: Sweet Potato Whitefly (Bemisia tabaci, BEMITA); test: Bioassay 8: Sweet Potato Whitefly, spray on cotton seedlings at crawler emergence, nymphs counted 7-9 days after treatment; conditions: F1 alone 0.8 (10^-5) Wt %

`CCN(C(=O)CCS(C)(=O)=O)c1sc(-c2cccnc2)nc1Cl` [Formula F1, N-(4-chloro-2-(pyridin-3-yl)thiazol-5-yl)-N-ethyl-3-(methylsulfonyl)propanamide] was tested, and the “Average % Control F1” value ([1]; F1 alone 10 (10^-5) Wt %) was 0.00%, the “Average % Control F1” value ([1]; Feeding damage control, F1 alone 20 (10^-5) Wt %) was 17.64% and the “Average % Control F1” value ([2]; Acute mortality) was 6.82%. For the same compound, the “Average % Control F1” value ([2]; Feeding damage control) was 8.53% and the “Average % Control F1” value [3] was 74.86%.
